Test results published in BindingDB's records for doi:10.1016/j.bmcl.2003.07.021 (Vicuron Pharmaceuticals, 2003).

Target: DNA gyrase (Escherichia coli)
Test: Inhibitory concentration against Escherichia coli by Escherichia coli DNA gyrase gel-based supercoil assay

CCOC(=O)c1cn(CC)c2cc(N3CCN(C(=O)c4ccc(N5C[C@H](CNC(C)=O)OC5=O)cc4F)CC3)c(F)cc2c1=O [7-(4-{4-[(S)-5-(Acetylamino-methyl)-2-oxo-oxazolidin-3-yl]-2-fluoro-benzoyl}-piperazin-1-yl)-1-ethyl-6-fluoro-4-oxo-1,4-dihydro-quinoline-3-carboxylic acid ethyl ester]
IC50: 12.5 µM
